Laboratory results as given in PMC8023496, “Immune mediation of HMG-like DSP1 via Toll-Spätzle pathway and its specific inhibition by salicylic acid analogs” (PLoS Pathogens, 2021).

Biological target: rSe-DSP1 (Se-DSP1; dorsal switch protein 1)
Assay: thermal shift assay (Protein Thermal Shift dye), melting temperature vs ligand concentration
Parameters: species or system Spodoptera exigua
Conditions: 500 ng protein; ligand 0-8 uM; compounds dissolved in DMSO

SMILES	Kd [nM]
CCOc1cc(O)ccc1OC [3-ethoxy-4-methoxyphenol]	119 ± 20
O=C(O)c1ccccc1O [salicylic acid]	238 ± 40
